Experimental data from patent US20240074473A1, “METHOD FOR INDUCING HYPERTROPHIC MUSCLE FIBERS FOR INDUSTRIAL MEAT PRODUCTION” (Yeda Research and Development Co. Ltd., priority 2021, published 2024).
Where two headings read alike, the source gives them in different places.

Legend:
primary mouse myoblasts [1] = experiment: qRT-PCR gene expression in primary mouse myoblasts; type: cell-based
Experimental: Quantitative real-time PCR (qRT-PCR). Total RNA was isolated using Tri-Reagent (SIGMA) according to the manufacturer's instructions. cDNA was synthesized with the High Capacity cDNA Reverse Transcription Kit (Applied Biosystems according to the manufacturer's instructions. qRT-PCR was performed with SYBR green PCR Master Mix (Applied Biosystems) using the StepOnePlus Real-time PCR system (Applied Biosystems). Values for specific genes were normalize to either Gapdh or Hprt housekeeping control as indicated in Figure legend. Expression was calculated using the ddCT method.
First passage primary mouse derived myoblast were seeded in proliferation media, in equal number in 12-well tissue culture plates that were precoated with 10% Matrigel solution. Following 24 hours to allow for complete attachment, culture media was washed and replaced either with fresh proliferation media (PM), PM supplemented with 1 uM SCH 772984 (ERKi) or differentiation media (DM). After 24 hrs, cells were lysed and RNA was collected. Gene expression analysis was carried out using SYBR green qRT-PCR analysis.

primary mouse myoblasts [2] = experiment: MYOG positive nuclei in primary mouse myoblasts (immunofluorescence); type: cell-based; conditions: co-treatment with 1 μM ERKi, 24 hrs; HX531 20 uM, Dantrolene 50 uM, BAPTA-AM 10 uM, KN93 5 uM
Experimental: (§1) Isolation of and treatment of primary myoblasts. Primary mouse myoblasts were isolated from gastrocnemius muscle using trypsin-tissue dissociation. Briefly, muscle tissues were incubated in Trypsin B (0.25%, Biological Industries) and subjected to mechanical dissociation with a serological pipet. Supernatants were strained and centrifuged. Pellets were grown resuspended in BioAmf-2 media (Biological Industries, Israel) and plated on 10% Matrigel (BD Biosciences)-coated plates at 37° and 5% CO2. For all in vitro experiments, proliferation medium was Bio-Amf2 (Biological Industries, Israel) and Differentiation medium (DM) was DMEM 2% Horse Serum (HS) with 1% Pen/Strep. For fusion assays, cells were trypsinized with Trypsin C (0.05%, Biological Industries) and subjected to two rounds of preplating on uncoated plates to reduce the number of fibroblasts. Cells were plated at a density of 8×10^3 per well in 10% Matrigel-coated 96-well plates in proliferation medium for 24 hours. The following day, proliferation media was replaced either with proliferation media or with DM containing DMSO (Ctrl) or 1 μM ERK1/2 inhibitor (ERKi; SCH772984, Cayman Chemicals), […] RXR antagonist (RXRi; HX-531, Cayman Chemicals), […] Ryanodine receptor antagonist (RYRi; Dantrolene, Cayman Chemicals), 5 μM CaMKII inhibitor (CaMKIIi; KN93, Cayman Chemicals), or with DM for controls.
(§2) Immunofluorescence staining. First passage primary myoblasts isolated from various strains (indicated in figure legends) were plated in 96-well plates or chamber slides and treated as previously described. The cells were fixed with ice cold 4% PFA in PBS for 10 minutes, permeabilized with 0.5% Triton X-100 in PBS for 6 minutes, and blocked in PBS with 0.025% tween, 10% normal horse serum and 10% normal goat serum for 1 hour at room temperature. Primary antibody incubation was done in blocking buffer overnight at 4 degrees, with the following antibodies: Myosin Heavy Chain (MyHC, MF20, DSHB hybridoma supernatant 1:10, or MY-32 ABCAM ab51263 1:400), Myogenin (MYOG sc-13137 SCBT 1:200), pHistone 3 (PH3, ab47297 ABCAM 1:1000), Ki-67 (Cell Marque #275R), RYR (ab2868 ABCAM 1:100), and pCaMKII (SIGMA SAB4504356 1:100). Cells were washed 3 times in PBS with 0.025% tween and then incubated with appropriate secondary antibodies in PBS 1 hour. Where indicated, nuclei were either labeled with DAPI (SIGMA D9542, 5 ug/ml) or Hoechst 33342 (Thermo scientific #62249, 1:2000). Fixed cells at 24 hours post treatment with indicated inhibitors were imaged using the Nikon Eclipse Ti2 microscope (further described in microscopy section). All analysis was performed on at least 1000 nuclei. For fixed cells following the timecourse with ERKi or DM (FIG. 1B), images were captured with an inverted Olympus IX83 microscope (further details in microscopy section). All imaging analysis were performed on at least 1000 cells.

primary mouse myoblasts [3] = experiment: Fusion index of primary mouse myoblasts (MyHC immunostaining); type: cell-based
Experimental: as §1
as §2, with “For fixed cells following the timecourse with ERKi or DM (FIG. 1B), images were captured with an inverted Olympus IX83 microscope (further details in microscopy section). All imaging analysis were performed on at least 1000 cells.” left out
Quantification of fusion index. Following immunostaining and imaging, a fusion index was quantified by manually identifying nuclei found in a MyHC positive cell with at least 2 nuclei. Then the values were expressed as a percentage of the total nuclei per field. Briefly, in Figures where fusion index is stratified into subgroups of fiber size, the nuclei number in MyHC positive cell was manually quantified in a given field and stratified into groups of mononucleated, bi-nucleated myotubes, myotubes with 3-10 nuclei and myotubes with greater than 10 nuclei. […] Fields were analyzed hourly, and nuclei per cell was quantified and stratified into mononucleated, bi-nucleated, tri-nucleated and cells with ≥4 nuclei.

primary mouse myoblasts [4] = experiment: Cell motility of myoblasts; type: cell-based; conditions: co-treatment with ERKi and CaMKIIi
CaMKII = experiment: Western blot of CaMKII activation (p-CaMKII T287) in myoblasts; type: cell-based, mouse; conditions: co-treatment with ERKi and 5 uM KN93, 24 hrs
Experimental: Western Blot analysis. Cultured cells and whole tissues extracts were prepared with RIPA buffer supplemented with protease inhibitor cocktail (SIGMA P8340), and phosphatase inhibitor cocktails (SIGMA P5726 and P0044). Western blotting was performed using the Mini-PROTEAN Tetra Cell electrophoresis system, and transferred to PVDF membranes. The following primary antibodies concentrations were used p-CAMKII 1:1000 (Abcam ab182647), CaMKII 1:1000 (Cell Signaling 3362), GAPDH 1:10,000 (Abcam ab181602), p-ERK1/2 1:20,000 (SIGMA M9692), ERK1/2 1:40,000 (SIGMA), Myosin Heavy Chain (MF-20 DSHB hybridoma supernatant 1:100) Horseradish peroxidase conjugated secondary anti-mouse, anti-rabbit or anti-goat was used to detect proteins (Jackson Immunology). Western blots were imaged using the Chemidoc Multiplex system (Bio-rad).

primary mouse myoblasts [5] = experiment: Proliferation markers KI-67 and pH3 staining in primary mouse myoblasts; type: cell-based; conditions: co-treatment of ERKi with CaMKIIi
Experimental: as §2, with “For fixed cells following the timecourse with ERKi or DM (FIG. 1B), images were captured with an inverted Olympus IX83 microscope (further details in microscopy section). All imaging analysis were performed on at least 1000 cells.” left out

[6] = Maximum estimated dietary exposure to media ingredients per 100 g serving; conditions: assumption of complete transfer of media components to the finished product on a wt/wt basis
[7] = Risk categorization of cell culture media ingredients
Description: Category 1: These cell culture media components are food ingredients/additives that are GRAS or permitted by federal regulation without limitation on use. Exemplary compounds in this category include innocuous ingredients such as sugars, pH buffers, water soluble vitamins, and common antioxidants such as tocopherols.
(§3) Category 2: These cell culture media components are common dietary nutrients and are anticipated to have GRAS status for food use or be permitted by regulation for addition to food. Examples of such compounds include most of the inorganic salts and macronutrients that are present within the cell culture media. […] Majority of nutrients present within the poultry cell-based meat may be readily measured using common validated methods for food composition testing. Batch analyses of multiple lots of the finished product may be obtained to validate the above assumptions. In some instances, consideration of established safe levels (e.g., ADI, UL) derived from a relevant authoritative body (e.g., U.S. FDA, EFSA, JECFA, FSANZ, U.S. EPA) may be leveraged to support safety. If comparisons of anticipated dietary intakes relative to an authoritative reference intake value is used, consideration of additive intakes from all dietary sources may be considered. In the absence of an authoritative reference intake value, published NOAELs from animal toxicology studies may be used to evaluate safety using standard scientific procedures for food safety evaluation. A margin of exposure (MoE) of 100-fold or greater between the NOAEL and estimated dietary intakes from food exposures is typically considered adequate to support safety. in situations where the MoE is <100-fold, additional measures for further reduction of the media component may be necessary, or further characterization of intraspecies/interspecies differences in metabolism may be necessary. These situations also require careful consideration of the regulatory status on a case-by basis (e.g., premarket approval as a food additive or GRAS evaluation required).
For example, situations where the compound is not detectable in finished product or is present at equivalent levels in comparator foods, compounds that are thermo-labile and will be digested during cooking, and/or compounds that are expected to be digested to innocuous compounds following ingestion. Examples of compounds meeting the aforementioned conditions would include recombinant growth factors and serum components. For Category 3 substances a final consideration in the safety assessment process may involve hazard characterization of the potential for a substance to produce toxic biological effects outside of the endpoints measured in a sub-chronic rat toxicity study. Substances with biological activity may require additional hazard characterization related to reproductive and developmental toxicity, or immunotoxicity. Considerations for allergenicity, biological effects in humans (e.g., effects on blood pressure), and synergistic effects with other media components also may be evaluated. […] Examples of category 3 components include recombinant proteins and animal serum.

[8] = Margin of estimated intake below NOAEL of rat toxicity study; type: in vivo
Description: as §3

[9] = cell culture media ingredient used during meat production

With `COc1ccc(S(=O)(=O)N(CCO)c2ccccc2CN(C)C/C=C/c2ccc(Cl)cc2)cc1` [KN93] the “ERKi-induced elevation of Mymk expression” value (primary mouse myoblasts [1]; co-treatment with ERKi and CaMKIIi) was “partially suppressed”, the “Differentiation (percent of MYOG positive nuclei) on co-treatment with ERKi” value (primary mouse myoblasts [2]) was “remained unaffected” and the “Formation of polynucleated myotubes” value (primary mouse myoblasts [3]; co-treatment with ERKi and 5 uM KN93, bi- and tri-nucleated MyHC+ cells maintained) was “suppressed”. For the same compound, the “Cell motility compared to ERKi-treated cells” value (primary mouse myoblasts [4]) was “unchanged”, the “CaMKII activation (p-CaMKII T287)” value (CaMKII) was “suppressed CaMKII activation” and the “Cell cycle arrest (pH3 staining, p21 and p27 expression) compared to ERKi alone” value (primary mouse myoblasts [5]) was “did not affect cell cycle arrest”.
With `O=[Se]([O-])[O-].[Na+].[Na+]` [SODIUM SELENITE (ANHY)] the “Maximum Estimated Exposure per 100 g serving” value [6] was 0.19 mg, the “Risk Assessment Category” value [7, 9] was 2 and the “Intakes for a 65 kg adult below NOAEL” value ([8]; 13 week rat NOAEL) was “are 133-fold below 13”.
With `CC(=O)OCOC(=O)CN(CC(=O)OCOC(C)=O)c1ccccc1OCCOc1ccccc1N(CC(=O)OCOC(C)=O)CC(=O)OCOC(C)=O` [BAPTA-AM] the “Differentiation (percent of MYOG positive nuclei) on co-treatment with ERKi” value (primary mouse myoblasts [2]) was “without affecting early differentiation” and the “Reduction of ERKi-induced fusion” value (primary mouse myoblasts [3]; co-treatment with ERKi and BAPTA-AM (10 uM per FIG. 2B)) was 81%.
In the case of `CN1c2ccc([N+](=O)[O-])cc2N=C(c2ccc(C(=O)O)cc2)c2cc3c(cc21)C(C)(C)CCC3(C)C` [HX531], the “Ryr1 and Ryr3 mRNA expression” value (primary mouse myoblasts [1]; co-treatment with ERKi and RXRi, 24 hours post treatment) is reported as “downregulation”, the “Differentiation (percent of MYOG positive nuclei) on co-treatment with ERKi” value (primary mouse myoblasts [2]) is reported as “without affecting differentiation” and the “Suppression of ERKi-induced fusion” value (primary mouse myoblasts [3]; co-treatment with ERKi and 20 uM HX531, 24 hours) is reported as 47%.
In the case of `O=C(O)CCC(=O)O` [SUCCINIC ACID], the “Maximum Estimated Exposure per 100 g serving” value [6] is reported as 200 mg and the “Intakes for a 65 kg adult below NOAEL” value ([8]; NOAEL from 2 year rat study) is reported as “adult are 257-fold”.
For `O=C1CN(/N=C/c2ccc(-c3ccc([N+](=O)[O-])cc3)o2)C(O)=N1` [Dantrolene], the “Differentiation (percent of MYOG positive nuclei) on co-treatment with ERKi” value (primary mouse myoblasts [2]) was “without affecting differentiation” and the “Reduction of ERKi-induced fusion” value (primary mouse myoblasts [3]; co-treatment with ERKi and 50 uM Dantrolene) was 60%.
For `NCCO` [MONOETHANOLAMINE], the “Maximum Estimated Exposure per 100 g serving” value [6] was 160 mg, the “Risk Assessment Category” value [7] was 2 and the “Intakes for a 65 kg adult below NOAEL” value ([8]; rat NOAEL) was “kg adult are 128 fold”.
In the case of `O.O.O.O.O.O.O=C([O-])CCC(=O)[O-].[Na+].[Na+]` [SODIUM SUCCINATE-2Na 6H20], the “Maximum Estimated Exposure per 100 g serving” value [6] is reported as 40 mg, the “Risk Assessment Category” value [7, 9] is reported as 2 and the “Intakes for a 65 kg adult below NOAEL” value ([8]; NOAEL from 2 year rat study) is reported as “are >1000 fold below”.
